Measurements published in PubChem BioAssay AID1996.
≈ marks a conversion by molar mass, not a printed value.

Settings: buffer; pH 7.4; 200.0 µM

`COc1ccc(C(=O)Nc2ccc(Nc3ccccc3)cc2)cc1OC` and `COc1cc2nc(NC(=O)c3ccccc3)sc(=O)c2cc1OC` cannot be ordered by solubility kinetic: less than 0.4 µg/mL for the first, less than 0.4 µg/mL for the second.

First: CCn1c(Oc2ccc(F)cc2)nc2c1c(=O)n(C)c(=O)n2C
Second: Cc1ccc(OCC2Cn3c(nc4c3c(=O)[nH]c(=O)n4C)O2)cc1C (stereo not given)
The solubility kinetic of the first is higher: greater than 47.7 µg/mL for the first, 3.4 µg/mL (≈ 9.93 µM) for the second.

`COP(=O)(NC(=O)C(Cl)(Cl)Cl)OC` and `COCCN(CCOC)C(=O)N1CCOCC1` cannot be ordered by solubility kinetic: greater than 40.6 µg/mL for the first, greater than 36.9 µg/mL for the second.

`O=C(NCCc1ccc(Cl)cc1)C1CCCO1` (stereo not given) and `Clc1ccc(OCCNCCc2ccccc2)cc1.O=C(O)C(=O)O` cannot be ordered by solubility kinetic: greater than 38.1 µg/mL for the first, greater than 54.9 µg/mL for the second.

Compared with `CCOc1ccc2[nH]c3c(NCCc4ccc(OC)c(OC)c4)ncnc3c2c1`, `COc1cc(C(=O)NCCNC(=O)c2ccc(C)nc2)cc(OC)c1OC` is 8.9-fold higher in solubility kinetic: 5.9 µg/mL (≈ 15 µM) for the first, 52.6 µg/mL (≈ 141 µM) for the second.

`O=C(COC(=O)C12CC3CC(CC(C3)C1)C2)NCc1ccccc1` and `CC1CCCC(NC(=O)COC(=O)CCc2ccccc2)C1C` (stereo not given) are within 1.5-fold of each other in solubility kinetic: 10.2 µg/mL (≈ 31.2 µM) for the first, 12.2 µg/mL (≈ 38.4 µM) for the second.

First: CCCOc1ccc(N2C(=O)C3C4C=CC(CC4)C3C2=O)cc1 (stereo not given)
Second: NC(=O)C1CC(=O)N(c2ccc(OCC(=O)NCc3ccccc3)cc2)C1 (stereo not given)
The solubility kinetic of the first is lower: 4.6 µg/mL (≈ 14.8 µM) for the first, greater than 55.1 µg/mL for the second.

Going from `Cc1ccc(S(=O)(=O)NC(=O)Nc2ccc(C)cn2)cc1` to `CC(=O)NCCCNS(=O)(=O)c1ccc(C)cc1`, the solubility kinetic falls from greater than 45.8 µg/mL to 32.2 µg/mL (≈ 119 µM).

`COc1cccc(NC(=O)C(=O)NCCCN2CCCC2=O)c1` and `O=C(OCC(=O)N1CCCC1=O)c1ccc(O)cc1O` cannot be ordered by solubility kinetic: greater than 47.9 µg/mL for the first, greater than 41.9 µg/mL for the second.

Going from `c1ccc(N2CCN(C3CC4CCC3C4)CC2)cc1` (stereo not given) to `C#CCN1CCN(c2cccc(C(F)(F)F)c2)CC1`, the solubility kinetic falls from 27.1 µg/mL (≈ 106 µM) to 9.8 µg/mL (≈ 36.5 µM) (2.8-fold).

Compared with `NC(=O)COC(=O)c1ccc2c(c1)S(=O)(=O)c1ccccc1C2=O`, `CC(NC(=O)COC(=O)c1nc(Cl)ccc1Cl)c1ccccc1` (stereo not given) is higher in solubility kinetic: 7.5 µg/mL (≈ 21.7 µM) for the first, greater than 53 µg/mL for the second.

Going from `Cc1cc(C)n(CC(=O)NC2CCCCC2C)c(=O)c1C#N` (stereo not given) to `CC1Oc2ccccc2N(CC(=O)NC2CCCC2)C1=O` (stereo not given), the solubility kinetic rises from 16.7 µg/mL (≈ 55.4 µM) to greater than 43.3 µg/mL.

`CCC(C)NC(=O)Cn1nc(C(F)(F)F)c2c1CCC2` (stereo not given) and `CCN1CCN(CC(=O)Nc2ccc(C(C)=O)cc2)CC1.Cl` cannot be ordered by solubility kinetic: greater than 43.4 µg/mL for the first, 45.2 µg/mL for the second.

`C=CCn1c(=O)c2ccccc2n2c(SCC(=O)O)nnc12` and `Cn1c(SCC(=O)NC2CCS(=O)(=O)C2)nc2ccccc21` (stereo not given) cannot be ordered by solubility kinetic: greater than 47.4 µg/mL for the first, greater than 50.9 µg/mL for the second.

`CC(C)N(C(=O)Cn1c(Cl)nc2ccccc21)C(C)C` and `CCN(C(=O)CSc1ncccn1)c1cccc2ccccc12` cannot be ordered by solubility kinetic: greater than 44.1 µg/mL for the first, greater than 48.5 µg/mL for the second.

First: Cc1cc(C)c(OCC(=O)OCC(=O)NC2CCCCCCC2)c(C)c1
Second: COc1ccc(OC(C)C(=O)NC2CCCCCC2)cc1 (stereo not given)
The solubility kinetic of the first is 1.7-fold lower: 23.5 µg/mL (≈ 65 µM) for the first, 40 µg/mL (≈ 137 µM) for the second.

`O=C(/C=C/c1ccccc1Cl)NC1CCCCC1` and `O=C(CSC(=S)N1CCCC1)c1ccccc1` cannot be ordered by solubility kinetic: less than 0.6 µg/mL for the first, less than 0.6 µg/mL for the second.

`CCOC(=O)C1(Cc2ccccc2)C(=O)Nc2ccccc21` (stereo not given) and `Cl.O=C1CCC(c2ccccc2)(C2CCN(Cc3ccccc3)CC2)C(=O)N1` (stereo not given) are within 1.5-fold of each other in solubility kinetic: 37.1 µg/mL (≈ 126 µM) for the first, 51.4 µg/mL for the second.

Compared with `Cc1cc(=O)[nH]c(N2CCCNCC2)n1`, `c1csc(-c2nc(N3CCCCC3)no2)c1` is lower in solubility kinetic: greater than 31.2 µg/mL for the first, 3.8 µg/mL (≈ 16.1 µM) for the second.

Going from `COC(=O)CSc1nc(N2CCOCC2)c2c(c1C#N)CCCC2` to `Cc1nc(N2CCC(C)CC2)c(C#N)c(C)c1[N+](=O)[O-]`, the solubility kinetic falls from 25.6 µg/mL (≈ 73.7 µM) to 0.9 µg/mL (≈ 3.28 µM) (28-fold).

`O=C(O)COCC(=O)Nc1ccc2c(c1)ncn2CCc1ccccc1` and `CC(C)CCNC(=O)C1CC(=O)N(CCc2ccccc2)C1` (stereo not given) cannot be ordered by solubility kinetic: greater than 53 µg/mL for the first, greater than 45.4 µg/mL for the second.

`[O-][n+]1ccc(OCc2ccccc2)cc1` and `CCOc1ccc(CNCc2ccccc2Cl)cc1.Cl` cannot be ordered by solubility kinetic: greater than 30.2 µg/mL for the first, 31.6 µg/mL for the second.

`Cc1c(Cl)cccc1Nc1ncccc1C(=O)O` and `O=C(O)c1cc(=O)[nH]c2c(Cl)cccc12` cannot be ordered by solubility kinetic: 34 µg/mL (≈ 129 µM) for the first, greater than 33.5 µg/mL for the second.

`CCCN1CN=C(NS(=O)(=O)c2ccc(C)cc2)NC1` and `CCOC(=O)N1CCN(C(=O)CCc2ccc(S(=O)(=O)NCC(C)C)cc2)CC1` cannot be ordered by solubility kinetic: greater than 44.5 µg/mL for the first, 59.6 µg/mL (≈ 140 µM) for the second.

`CCNC(=O)CC1C(=O)N(CC)C(=S)N1NC(=O)c1cccnc1` (stereo not given) and `Cc1cccc(C(=O)NCC(=O)OCC(=O)c2ccc(C)s2)c1` cannot be ordered by solubility kinetic: greater than 52.4 µg/mL for the first, greater than 49.7 µg/mL for the second.

Going from `CCCc1cnc(N2CCN(C(=S)NC)CC2)nc1` to `N#C/C(=C\c1ccccc1)C(=O)N1CCN(c2ccccc2F)CC1`, the solubility kinetic falls from 38.7 µg/mL (≈ 139 µM) to 20.4 µg/mL (≈ 60.8 µM) (1.9-fold).

Going from `CC(NC(=O)c1c(F)cccc1Cl)c1ccc(-n2ccnc2)cc1` (stereo not given) to `Cc1ccc(NC(=O)c2ccc(Cl)cc2Cl)cc1O`, the solubility kinetic falls from greater than 51.6 µg/mL to 12 µg/mL (≈ 40.5 µM).

Compared with `O=C1NC2(CCCCCCC2)C(=O)N1Cc1ccc(F)cc1`, `COc1ccc(CNC(=O)COC(=O)c2ccc(S(=O)(=O)N3CCCCC3)cc2)cc1` is 5-fold lower in solubility kinetic: 10.5 µg/mL (≈ 34.5 µM) for the first, 2.1 µg/mL (≈ 4.7 µM) for the second.

`CC(CCc1ccccc1)NCCC#N.Cl` (stereo not given) and `Cc1cc(C(=O)NC(Cc2ccccc2)C(=O)O)c(C)o1` (stereo not given) cannot be ordered by solubility kinetic: greater than 35.8 µg/mL for the first, greater than 43.1 µg/mL for the second.

`Br.O=[N+]([O-])c1ccc(CSC2=NCCN2)cc1` and `O=C(Nc1cc([N+](=O)[O-])ccc1O)c1cccc([N+](=O)[O-])c1` are within 1.5-fold of each other in solubility kinetic: 43.2 µg/mL for the first, 37.1 µg/mL (≈ 122 µM) for the second.

Going from `Cc1ccc(Sc2cnccc2C#N)cc1` to `N#C/C(=C(/O)c1ccco1)c1nc2ccccc2s1`, the solubility kinetic rises from 15.4 µg/mL (≈ 68.1 µM) to greater than 40.2 µg/mL.

Going from `Cc1cc(=O)[nH]c(SCC(=O)NCc2ccc3c(c2)OCO3)n1` to `CCN(CC)S(=O)(=O)c1ccc(NC(=O)c2cc(=O)[nH]c3ccccc23)cc1`, the solubility kinetic falls from greater than 50 µg/mL to 3.9 µg/mL (≈ 9.76 µM).

Going from `Cc1ccc(NC(=O)CCc2ccc(S(=O)(=O)N3CCOCC3)cc2)c(O)c1` to `O=C(COC(=O)/C=C/c1ccccc1[N+](=O)[O-])Nc1ccc(S(=O)(=O)N2CCOCC2)cc1`, the solubility kinetic falls from 44.6 µg/mL (≈ 110 µM) to 24 µg/mL (≈ 50.5 µM) (1.9-fold).

`CC(=O)Cc1nsc(NC(=O)c2ccc(F)cc2)n1` and `CCN(CC(=O)NCc1ccc(F)cc1)CC(=O)Nc1ccc(Br)cc1F` cannot be ordered by solubility kinetic: greater than 41.9 µg/mL for the first, 58.9 µg/mL (≈ 134 µM) for the second.

Going from `CN(C)c1ccc(NC(=O)CCN2C(=O)c3cccc([N+](=O)[O-])c3C2=O)cc1` to `COC1=C(Nc2ccccc2OC)C(=O)c2ccccc2C1=O`, the solubility kinetic falls from 42.4 µg/mL (≈ 111 µM) to 17.2 µg/mL (≈ 55.6 µM) (2.5-fold).

Going from `CC(=O)c1sccc1NC(=O)CC(C)(C)CC(=O)O` to `Cc1ccccc1NC(=O)CC1SC(=Nc2ccc(O)cc2)NC1=O` (stereo not given), the solubility kinetic falls from 32.5 µg/mL (≈ 115 µM) to 2 µg/mL (≈ 5.63 µM) (16-fold).

First: CN1CCN(/C=C(\C#N)S(=O)(=O)c2ccc(Cl)cc2)CC1
Second: O=C(NCC(c1ccco1)N1CCCCC1)c1ccc(S(=O)(=O)Nc2ccccc2Cl)cc1 (stereo not given)
The solubility kinetic of the first is 2.5-fold higher: 44.1 µg/mL (≈ 135 µM) for the first, 17.7 µg/mL (≈ 36.3 µM) for the second.

First: CSCC(=O)Nc1cc(C)on1
Second: C/C(=N/OC(=O)CC(C)C)c1cc(-c2ccc(Cl)cc2)no1
The solubility kinetic of the first is higher: greater than 27.9 µg/mL for the first, less than 0.3 µg/mL for the second.

Going from `Brc1ccccc1-c1cnco1` to `O=C(Nc1c(O)c2ccccc2[nH]c1=O)c1ccco1`, the solubility kinetic rises from 8.5 µg/mL (≈ 37.9 µM) to greater than 40.5 µg/mL.

First: Cc1cc2c(cc1C)CN(c1ccccc1)C2
Second: Cc1cccc(OCCSc2nc3ncnc(N)c3[nH]2)c1
The solubility kinetic of the first is 4.7-fold higher: 7.1 µg/mL (≈ 31.8 µM) for the first, 1.5 µg/mL (≈ 4.98 µM) for the second.

`CCOC(=O)c1c(/N=C/c2cccc([N+](=O)[O-])c2O)sc2c1CCC2` and `COc1ccc(N=C2CCS(=O)(=O)c3sccc32)cc1` cannot be ordered by solubility kinetic: 49.9 µg/mL (≈ 138 µM) for the first, greater than 46.1 µg/mL for the second.

Compared with `CN(C)C(=S)Nc1ccc(Br)c(Cl)c1`, `COc1ccc(OCCNC(=O)Nc2cc(F)c(F)cc2Cl)cc1` is lower in solubility kinetic: 37 µg/mL (≈ 126 µM) for the first, less than 0.4 µg/mL for the second.

Compound `CC1CCCC(NC(=O)COC(=O)COc2ccc(C#N)cc2)C1C` (stereo not given) has a solubility kinetic of 45.4 µg/mL (≈ 132 µM).
